# Tested on: 563 solid tumor cell lines
# Assay: Luminex assay in PRISM, 5 days treatment (AUC)
# Format: cell-based
# Set-up: AUC: scale not given here
# Description: The AUC values provided in Table 80 below were calculated based on the Median Fluorescent Intensity values, the primary read out of the Luminex assay in PRISM. The following parameters were used in this assay: • 8 point dose was used in triplicate • max concentration of 10 μM was used with serial 4-fold dilutions (low of […]) • 563 adherent cell lines in 23 pools. • treatment duration was 5 days.
structure (smiles),measurement,setting,value
"O=C1CCC(N2Cc3cc(CNC(=O)C(F)(F)c4ccc(Cl)cc4)ccc3C2=O)C(=O)N1 (stereo not shown) [Compound 1, 2-(4-chlorophenyl)-N-((2-(2,6-dioxopiperidin-3-yl)-1-oxoisoindolin-5-yl)methyl)-2,2-difluoroacetamide]",AUC,SIMA_AUTONOMIC_GANGLIA,0.764
same,AUC,SJSA1_BONE,0.808
same,AUC,SKES1_BONE,0.984
same,AUC,SKHEP1_LIVER,0.817
same,AUC,SKLU1_LUNG,0.644
same,AUC,SKMEL2_SKIN,0.910
same,AUC,SKMEL3_SKIN,0.848
same,AUC,SKMEL5_SKIN,0.831
same,AUC,SKMEL24_SKIN,0.862
same,AUC,SKMEL30_SKIN,0.795
same,AUC,SKMES1_LUNG,0.902
same,AUC,SKNAS_AUTONOMIC_GANGLIA,0.832
same,AUC,SKNBE2_AUTONOMIC_GANGLIA,0.879
same,AUC,SKNEP1_BONE,0.523
same,AUC,SKNFI_AUTONOMIC_GANGLIA,0.852
same,AUC,SKOV3_OVARY,0.850
same,AUC,SKPNDW_BONE,0.861
same,AUC,SKUT1_SOFT_TISSUE,0.845
same,AUC,SNB75_CENTRAL_NERVOUS_SYSTEM,0.768
same,AUC,SNGM_ENDOMETRIUM,0.794
same,AUC,SNU46_UPPER_AERODIGESTIVE_TRACT,0.925
same,AUC,SNU61_LARGE_INTESTINE,0.881
same,AUC,SNU81_LARGE_INTESTINE,0.400
same,AUC,SNU182_LIVER,0.179
same,AUC,SNU216_STOMACH,0.521
same,AUC,SNU245_BILIARY_TRACT,0.853
same,AUC,SNU308_BILIARY_TRACT,0.873
same,AUC,SNU398_LIVER,0.951
same,AUC,SNU407_LARGE_INTESTINE,0.284
same,AUC,SNU410_PANCREAS,0.994
same,AUC,SNU423_LIVER,0.697
same,AUC,SNU449_LIVER,0.971
same,AUC,SNU668_STOMACH,0.423
same,AUC,SNU685_ENDOMETRIUM,0.812
same,AUC,SNU719_STOMACH,0.869
same,AUC,SNU738_CENTRAL_NERVOUS_SYSTEM,0.826
same,AUC,SNU840_OVARY,0.848
same,AUC,SNU869_BILIARY_TRACT,0.782
same,AUC,SNU878_LIVER,0.890
same,AUC,SNU886_LIVER,0.656
same,AUC,SNU1041_UPPER_AERODIGESTIVE_TRACT,0.806
same,AUC,SNU1066_UPPER_AERODIGESTIVE_TRACT,0.860
same,AUC,SNU1077_ENDOMETRIUM,0.759
same,AUC,SNU1105_CENTRAL_NERVOUS_SYSTEM,0.620
same,AUC,SNU1196_BILIARY_TRACT,0.653
same,AUC,SNU1214_UPPER_AERODIGESTIVE_TRACT,0.826
same,AUC,SNUC2A_LARGE_INTESTINE,0.608
same,AUC,SNUC4_LARGE_INTESTINE,0.290
same,AUC,SQ1_LUNG,0.838
same,AUC,SU8686_PANCREAS,0.848
same,AUC,SUIT2_PANCREAS,0.856
same,AUC,SW780_URINARY_TRACT,0.986
same,AUC,SW837_LARGE_INTESTINE,0.995
same,AUC,SW948_LARGE_INTESTINE,0.766
same,AUC,SW1088_CENTRAL_NERVOUS_SYSTEM,0.835
same,AUC,SW1116_LARGE_INTESTINE,0.879
same,AUC,SW1271_LUNG,0.718
same,AUC,SW1573_LUNG,0.894
same,AUC,SW1710_URINARY_TRACT,0.835
same,AUC,SW1990_PANCREAS,0.874
same,AUC,T3M10_LUNG,0.951
same,AUC,T24_URINARY_TRACT,0.906
same,AUC,T47D_BREAST,0.698
same,AUC,T98G_CENTRAL_NERVOUS_SYSTEM,0.830
same,AUC,TC32_BONE,0.681
same,AUC,TCCPAN2_PANCREAS,0.905
same,AUC,TE1_OESOPHAGUS,0.875
same,AUC,TE5_OESOPHAGUS,0.797
same,AUC,TE6_OESOPHAGUS,0.864
same,AUC,TE8_OESOPHAGUS,0.802
same,AUC,TE9_OESOPHAGUS,0.911
same,AUC,TE10_OESOPHAGUS,0.872
same,AUC,TE11_OESOPHAGUS,0.870
same,AUC,TE14_OESOPHAGUS,0.898
same,AUC,TEN_ENDOMETRIUM,0.815
same,AUC,TM31_CENTRAL_NERVOUS_SYSTEM,0.424
same,AUC,TOV21G_OVARY,0.864
same,AUC,TOV112D_OVARY,0.871
same,AUC,TT2609C02_THYROID,0.251
same,AUC,TTC709_SOFT_TISSUE,0.520
same,AUC,TT_OESOPHAGUS,0.859
same,AUC,TT_THYROID,0.179
same,AUC,TUHR4TKB_KIDNEY,0.265
same,AUC,U2OS_BONE,0.862
same,AUC,U87MG_CENTRAL_NERVOUS_SYSTEM,0.724
same,AUC,U118MG_CENTRAL_NERVOUS_SYSTEM,0.871
same,AUC,U251MG_CENTRAL_NERVOUS_SYSTEM,0.806
same,AUC,UACC62_SKIN,0.837
same,AUC,UACC257_SKIN,0.863
same,AUC,UBLC1_URINARY_TRACT,0.875
same,AUC,UO31_KIDNEY,0.710
same,AUC,VMRCRCW_KIDNEY,0.345
same,AUC,VMRCRCZ_KIDNEY,0.969
same,AUC,WM88_SKIN,0.802
same,AUC,WM793_SKIN,0.866
same,AUC,WM983B_SKIN,0.861
same,AUC,WM1799_SKIN,0.101
same,AUC,WM2664_SKIN,0.578
same,AUC,X8MGBA_CENTRAL_NERVOUS_SYSTEM,0.805
same,AUC,X42MGBA_CENTRAL_NERVOUS_SYSTEM,0.845
same,AUC,X253JBV_URINARY_TRACT,0.966
same,AUC,X253J_URINARY_TRACT,0.905
same,AUC,X647V_URINARY_TRACT,0.284
same,AUC,X769P_KIDNEY,0.463
same,AUC,X786O_KIDNEY,0.853
same,AUC,X5637_URINARY_TRACT,0.624
same,AUC,X8305C_THYROID,0.849
same,AUC,X8505C_THYROID,0.558
same,AUC,X2313287_STOMACH,0.254
same,AUC,YAPC_PANCREAS,0.719
same,AUC,YD8_UPPER_AERODIGESTIVE_TRACT,0.501
same,AUC,YD10B_UPPER_AERODIGESTIVE_TRACT,0.903
same,AUC,YD38_UPPER_AERODIGESTIVE_TRACT,0.877
same,AUC,YKG1_CENTRAL_NERVOUS_SYSTEM,0.936
same,AUC,ZR751_BREAST,0.853
